Experimental data taken from patent US12398093B2, “Compounds and methods for treating inflammatory disorders” (Board of Supervisors of Louisiana State University and …, priority 2019, dated 2025).

Columns and labels:
[1] = tested on: adult male Brown Norway rats; test: Ovalbumin allergic asthma model, whole body plethysmography (ΔPenh) after methacholine challenge; format: in vivo; conditions: rats, nebulized inhaled drug
Excerpt: (§1) A modification of the ovalbumin model of allergic asthma and whole body plethysmography protocol as described in Nau et al. (Am. J. Physiol. Lung Cell Mol. Physiol. 2015, 308(2): L191-L198; incorporated herein by reference) was used to determine ΔPenh, a measure of airways hyperresponsiveness (AHR), in response to methacholine challenge in adult male Brown Norway rats. Results, shown in FIGS. 2A-2G, represent PenH change measured in the ovalbumin allergic asthma assay in rats, with the exception of FIG. 2C, which was measured in mice, for nebulized inhaled drug. Statistics were performed using 2-way ANOVA with Tukey post hoc test for multiple comparisons.
Allergic asthma is defined as a chronic inflammatory disorder of the airways. This disease is characterized by airway inflammation, persistent airways AHR and intermittent, reversible airways obstruction.
Area under the curve of PenH values (PenH-AUC) in response to incremental doses of metacholine were calculated for each testing groups, naïve, OVA treated, and OVA+DRUG treated animals. A reduction in PenH-AUC values of more than 75% of the control values (OVA alone) was annotated as a strong efficacy. […] Additional to this information are provided the relative to R-DOI EC50 values (ratio) of tested compounds in 5-HT2AR heterologous cell-based calcium transient assay. […] FIG. 3 illustrates the non-correlative nature of the therapeutic efficacy of the phenylethylamines class of compounds against inflammatory-mediated allergen-induced AHR and the reported evidences of the dose necessary for psychoactive disturbances experienced with these compounds in humans or the potency and strength of these compounds to the 5-HT2AR in calcium transients assays.
Inhibition of ΔPenh as a function of 2C-iBu concentration was studied by nebulization nose-only administration of 2C-iBu to male adult Brown Norway rats as described above. Area under the curve for each treatment group at a given dose of 2C-iBu for ΔPenh is plotted on the Y-axis versus concentration of 2C-iBu on the X-axis.

5-HT2AR-Tango construct = molecular target: T1, 5-HT2AR-Tango construct (Homo sapiens, UniProt P28223); test: β-arrestin-2 recruitment, PRESTO-Tango assay in HTLA cells; format: cell-based; conditions: for pEC50 beta arrestin recruitment / EMAX (%) beta arrestin recruitment: Table 5; for EMAX (%) beta arrestin recruitment: percentage of 5-HT response
T1 construct: expressed in transfected cells; host or cells: HTLA cells (transient transfection)

human 5-HT2A receptor = molecular target: T2, human 5-HT2A receptor (Homo sapiens, UniProt P28223); test: Gq-mediated calcium transients (calcium mobilization), Fluo-4, HEK cells; format: cell-based; conditions: for pEC50 calcium mobilization / EMAX (%) calcium mobilization: Table 4; for EMAX (%) calcium mobilization: percentage of 5-HT response; for Emax: HEK293, read-out: EMAX (%) calcium mobilization
T2 construct: expressed in transfected cells

mice = test: Ovalbumin allergic asthma assay (PenH), nebulized inhaled drug, mice (FIG. 2C); format: in vivo; conditions: 1.0 mg/kg (FIG. 2C)
Excerpt: as §1

T2 sequence (P28223 whole entry): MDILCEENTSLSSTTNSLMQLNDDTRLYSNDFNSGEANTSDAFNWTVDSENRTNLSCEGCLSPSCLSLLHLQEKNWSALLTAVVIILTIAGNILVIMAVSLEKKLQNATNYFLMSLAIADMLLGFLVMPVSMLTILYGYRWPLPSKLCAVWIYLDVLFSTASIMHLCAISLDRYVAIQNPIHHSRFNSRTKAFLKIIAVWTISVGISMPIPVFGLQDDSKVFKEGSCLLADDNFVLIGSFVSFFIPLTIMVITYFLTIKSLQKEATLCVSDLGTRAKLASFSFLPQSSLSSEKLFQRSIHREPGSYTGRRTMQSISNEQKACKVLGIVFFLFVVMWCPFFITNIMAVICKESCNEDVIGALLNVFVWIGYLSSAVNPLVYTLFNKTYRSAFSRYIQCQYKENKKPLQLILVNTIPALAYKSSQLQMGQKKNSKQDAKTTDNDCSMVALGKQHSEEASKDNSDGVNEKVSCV
T1 sequence (P28223 whole entry, added parts left off): as the sequence (P28223 whole entry) above
T1 sequence (P32121 whole entry partner): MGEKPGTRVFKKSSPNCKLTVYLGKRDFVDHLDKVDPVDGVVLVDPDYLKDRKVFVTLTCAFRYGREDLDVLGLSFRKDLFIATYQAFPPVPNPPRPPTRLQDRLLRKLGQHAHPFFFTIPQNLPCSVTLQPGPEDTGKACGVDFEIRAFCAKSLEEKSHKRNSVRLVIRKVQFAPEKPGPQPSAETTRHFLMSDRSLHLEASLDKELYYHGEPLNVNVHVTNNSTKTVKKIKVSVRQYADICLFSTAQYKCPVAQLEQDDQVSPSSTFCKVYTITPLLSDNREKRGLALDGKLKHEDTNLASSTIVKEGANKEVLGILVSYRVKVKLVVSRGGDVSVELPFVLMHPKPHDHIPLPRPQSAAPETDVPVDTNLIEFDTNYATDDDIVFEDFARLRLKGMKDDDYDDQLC

Structure (SMILES)	EMAX (%) beta arrestin recruitment (5-HT2AR-Tango construct) [%]	pEC50 calcium mobilization (human 5-HT2A receptor)	EMAX (%) calcium mobilization (human 5-HT2A receptor) [%]	further results
Cl.NCCc1c2c(c(Br)c3c1OCC3)OCC2 [2C-B-Fly.HCl]				Prevention of AHR (ΔPenh/PenH) in response to OVA ([1]; 0.5 mg/kg): significant difference from OVA to naive, and from 2C-B-Fly.HCl+OVA to naive
COc1cc(CCN)c(OC)cc1Br [2C-B]	39.46	8.11	78.00	pEC50 beta arrestin recruitment (5-HT2AR-Tango construct): 5.99
COc1ccc(OC)c(CCN)c1 [2C-H]	10.98	6.34	69.50	pEC50 beta arrestin recruitment (5-HT2AR-Tango construct): 7.07
COc1cc(CCN)c(OC)cc1I [2C-I]		8.14	72.80	
COc1cc(CC(C)(C)C)c(OC)cc1CCN [2C-NP]				EC50 (human 5-HT2A receptor): 155 nM; Emax (human 5-HT2A receptor): 76%
COc1cc(C(C)C)c(OC)cc1CCN [2C-iP]	3.46	7.59	52.07	pEC50 beta arrestin recruitment (5-HT2AR-Tango construct): 7.8
COc1cc(CCNCc2ccccc2OC)c(OC)cc1I [25I-NBOMe]				Prevention of AHR (ΔPenh/PenH) in response to OVA ([1]; 1.0 mg/kg): reduced potency
COc1cc(CC(C)N)c(OC)cc1Br (stereo not drawn) [DOB]				Prevention of AHR (PenH) in response to OVA (mice): did not reduce potency
COc1cc(C(F)(F)F)c(OC)cc1CC(C)N (stereo not drawn) [DOTFM]				Prevention of AHR (ΔPenh/PenH) in response to OVA ([1]; 0.5 mg/kg): significant difference from OVA+DOTFM to naive
COc1cc(CC(C)N)c(OC)cc1CC(C)C (stereo not drawn) [DOiBu]				EC50 (5-HT2AR-Tango construct): 5.89 nM; Emax (5-HT2AR-Tango construct; HTLA, read-out: EMAX (%) beta arrestin recruitment): 70.2%; EC50 (human 5-HT2A receptor): 4.47 nM; Emax (human 5-HT2A receptor): 90.6%
COc1cc(C(C)C)c(OC)cc1CC(C)N (stereo not drawn) [DOiP]	20.40	8.29	73.17	pEC50 beta arrestin recruitment (5-HT2AR-Tango construct): 8.24
COc1ccc(OC)c(C[C@@H](C)N)c1 [R-2,5-DMA]	65.51		108.38	
COc1cc(C[C@@H](C)N)c(OC)cc1Br [R-DOB]	98.14		79.80	
COc1cc(Br)c(OC)c2c1[C@H](CN)C2 [TCB-2]				Prevention of AHR (ΔPenh/PenH) in response to OVA ([1]; 0.5 mg/kg): reduced PenH, it was still significantly elevated over naive controls
